# Data from patent publication US4503044A, “Antibiotic LL-D05139 β” (American Cyanamid Company, priority 1983, dated 1985).
# Like-named read-outs stand apart in the source and are kept apart here.
# Tests used:
# [1] = test system: Acinetobacter calcoaceticus; experiment: In vitro antibacterial activity, agar dilution; format: cell-based; details: 18 h, 35° C., read-out: Minimal Inhibitory Concentration
# Method: (§1) This antibacterial agent is active in vitro against gram-positive and gram-negative bacteria when tested by the standard agar dilution procedure with Mueller-Hinton agar, and an inoculum of each test organism of approximately 10^4 colony-forming units delivered by a Steers replicating device. The minimal inhibitory concentration (mcg/ml) was defined as the lowest concentration of antibiotic LL-D05139β that inhibited visible growth after 18 hours incubation at 35° C.
# [2] = test system: Bacillus subtilis; experiment: In vitro antibacterial activity, agar dilution; format: cell-based; details: ATCC6633; Bacillus subtilis ATCC 6633; Mueller-Hinton agar, 18 hours, 35° C.; read-out: Minimal Inhibitory Concentration
# Method: as §1
# [3] = test system: Candida albicans; experiment: In vitro antibacterial activity, agar dilution; format: cell-based; details: 18 h, 35° C., read-out: Minimal Inhibitory Concentration
# Method: as §1
# [4] = test system: Enterobacter aerogenes; experiment: In vitro antibacterial activity, agar dilution; format: cell-based; details: Klebsiella aerogenes; Enterobacter aerogenes Stfd-79-14; Mueller-Hinton agar, 18 hours, 35° C.; read-out: Minimal Inhibitory Concentration
# Method: as §1
# [5] = test system: Enterobacter cloacae; experiment: In vitro antibacterial activity, agar dilution; format: cell-based; details: Enterobacter cloacae K-79-16; Mueller-Hinton agar, 18 hours, 35° C.; read-out: Minimal Inhibitory Concentration
# Method: as §1
# [6] = test system: Enterococcus sp.; experiment: In vitro antibacterial activity, agar dilution; format: cell-based; details: Mueller-Hinton agar, 18 hours, 35° C.
# Method: as §1
# [7] = test system: Escherichia coli; experiment: In vitro antibacterial activity, agar dilution; format: cell-based; details: 35° C., read-out: Minimal Inhibitory Concentration
# Method: as §1
# [8] = test system: Klebsiella pneumoniae; experiment: In vitro antibacterial activity, agar dilution; format: cell-based; details: 18 h, 35° C., read-out: Minimal Inhibitory Concentration
# Method: as §1
# [9] = test system: Micrococcus luteus; experiment: In vitro antibacterial activity, agar dilution; format: cell-based; details: Micrococcus luteus PCI-1001; Mueller-Hinton agar, 18 hours, 35° C.; read-out: Minimal Inhibitory Concentration
# Method: as §1
# [10] = test system: Pasteurella multocida; experiment: In vitro antibacterial activity, agar dilution; format: cell-based; details: Pasteurella multocida LL #117; Mueller-Hinton agar, 18 hours, 35° C.; read-out: Minimal Inhibitory Concentration
# Method: as §1
# [11] = test system: Proteus morganii; experiment: In vitro antibacterial activity, agar dilution; format: cell-based; details: Morganella morganii; Proteus morganii K-79-25; Mueller-Hinton agar, 18 hours, 35° C.; read-out: Minimal Inhibitory Concentration
# Method: as §1
# [12] = test system: Proteus rettgeri; experiment: In vitro antibacterial activity, agar dilution; format: cell-based; details: Providencia rettgeri; Proteus rettgeri N-76-1; Mueller-Hinton agar, 18 hours, 35° C.; read-out: Minimal Inhibitory Concentration
# Method: as §1
# [13] = test system: Providencia stuarti; experiment: In vitro antibacterial activity, agar dilution; format: cell-based; details: Mueller-Hinton agar, 18 hours, 35° C.
# Method: as §1
# [14] = test system: Pseudomonas aeruginosa; experiment: In vitro antibacterial activity, agar dilution; format: cell-based; details: 35° C., read-out: Minimal Inhibitory Concentration
# Method: as §1
# [15] = test system: Salmonella sp.; experiment: In vitro antibacterial activity, agar dilution; format: cell-based; details: Salmonella sp. QHC-77-3; Mueller-Hinton agar, 18 hours, 35° C.; read-out: Minimal Inhibitory Concentration
# Method: as §1
# [16] = test system: Serratia marcescens; experiment: In vitro antibacterial activity, agar dilution; format: cell-based; details: Serratia marcescens QHC-77-2; Mueller-Hinton agar, 18 hours, 35° C.; read-out: Minimal Inhibitory Concentration
# Method: as §1
# [17] = test system: Serratia sp.; experiment: In vitro antibacterial activity, agar dilution; format: cell-based; details: Serratia sp. TU1-78-15; Mueller-Hinton agar, 18 hours, 35° C.; read-out: Minimal Inhibitory Concentration
# Method: as §1
# [18] = test system: Staphylococcus aureus; experiment: In vitro antibacterial activity, agar dilution; format: cell-based; details: Mueller-Hinton agar, 18 hours, 35° C.; for MIC: read-out: Minimal Inhibitory Concentration
# Method: as §1
# [19] = test system: lymphocytic leukemia P388; experiment: Lymphocytic Leukemia P388 Test; format: in vivo; details: DBA/2 mice, efficacy criterion ≥125%
# Method: The animals used were DBA/2 mice, all of one sex, weighing a minimum of 17 g and all within a 3 g weight range. There were three animals per test group. The tumor transplant was by intraperitoneal injection of 0.1 ml of dilute ascitic fluid containing 10^6 cells of lymphocytic leukemia P388. LL-D05139β was administered intraperitoneally on days 1, 5 and 9 (relative to tumor inoculation) at various doses. The animals were weighed and survivors recorded on a regular basis for 30 days. The ratio of survival time for treated (T)/control (C) animals was calculated. The positive control compound was 5-fluorouracil, given as a 60 mg/kg injection. The criterion for efficacy is T/C×100≥125%.
# [20] = test system: human lung carcinoma (LX-1); experiment: Human tumor clonogenic assay, lung carcinoma; format: cell-based; details: for T/C / Av. No. of Colonies/Culture: Lung Carcinoma; for T/C: active if T/C ≤30%; for Av. No. of Colonies/Culture: colonies counted after 10-11 days, control 590
# Method: (§2) This test was performed essentially by the method of A. Hamburger and S. Salmon, Primary bioassay of humor tumor stem cells., Science, 197: 461-463 (1977). Human colon carcinoma (CX-1) and human lung carcinoma (LX-1) tumors were obtained from the National Cancer Institute and propagated in athymic Balb/c mice. Freshly removed tumors were dispersed with trypsin 0.25% and 5×10^4 lung carcinoma cells or 1×10^5 colon carcinoma cells in soft (0.3%) agarose medium containing 0.1 ml of test drug were plated onto a solidified (0.5%) agarose base medium in 35 mm grided dishes. Cultures were incubated at 37° C. in a humidified 5% carbon dioxide in air atmosphere. Colonies were counted after 10-11 days. A compound is considered active if the treated/control (T/C) value is ≤30%, representing a 70% cell kill.
# [21] = test system: human colon carcinoma (CX-1); experiment: Human tumor clonogenic assay, colon carcinoma; format: cell-based
# Method: as §2
# [22] = Stability in solution as a function of pH; format: physicochemical
smiles,measurement,setting,value
"C[C@H](N)C(=O)N[C@@H](COC(=O)C=[N+]=[N-])C(=O)O [LL-D05139β, N-L-alanyl-L-serine diazoacetate]",MIC,"[1]; Acinetobacter calcoaceticus K-77-1, Mueller-Hinton agar",128 µg/mL
same,MIC,"[1]; Acinetobacter calcoaceticus Stfd-79-17, Mueller-Hinton agar",512 µg/mL
same,MIC,[2],16 µg/mL
same,MIC,"[3]; Candida albicans LL #32, Mueller-Hinton agar",64 µg/mL
same,MIC,"[3]; Candida albicans LL #54, Mueller-Hinton agar",128 µg/mL
same,MIC,[4],128 µg/mL
same,MIC,[5],128 µg/mL
same,MIC,"[6]; Enterococcus sp. OSU-75-1, read-out: Minimal Inhibitory Concentration",64 µg/mL
same,Minimal Inhibitory Concentration,[6]; Enterococcus sp. SM-77-15,64 µg/mL
same,MIC,"[7]; 18 h, Escherichia coli #31, Mueller-Hinton agar",4 µg/mL
same,MIC,"[7]; 18 h, Escherichia coli Stfd-79-20, Mueller-Hinton agar",8 µg/mL
same,MIC,"[7]; ATCC25922, 18 h, Escherichia coli ATCC 25922, Mueller-Hinton agar",8 µg/mL
same,MIC,"[8]; Klebsiella pneumoniae AD, Mueller-Hinton agar",4 µg/mL
same,MIC,"[8]; Klebsiella pneumoniae SSC-78-1, Mueller-Hinton agar",128 µg/mL
same,MIC,"[8]; Klebsiella pneumoniae Stfd-79-6, Mueller-Hinton agar",128 µg/mL
same,MIC,[9],4 µg/mL
same,MIC,[10],64 µg/mL
same,MIC,[11],64 µg/mL
same,MIC,[12],16 µg/mL
same,Minimal Inhibitory Concentration,[13]; Providencia stuarti K-81-29,64 µg/mL
same,MIC,"[13]; Providencia stuarti SSC-80-78, read-out: Minimal Inhibitory Concentration",64 µg/mL
same,MIC,"[14]; 18 h, Pseudomonas aeruginosa 12-4-4, Mueller-Hinton agar",128 µg/mL
same,MIC,"[14]; 18 h, Pseudomonas aeruginosa SSC-78-13, Mueller-Hinton agar",512 µg/mL
same,MIC,"[14]; ATCC27853, 18 h, Pseudomonas aeruginosa ATCC 27853, Mueller-Hinton agar",128 µg/mL
same,MIC,[15],4 µg/mL
same,MIC,[16],32 µg/mL
same,MIC,[17],64 µg/mL
same,MIC,"[18]; ATCC25923, Staphylococcus aureus ATCC 25923",16 µg/mL
same,Minimal Inhibitory Concentration,[18]; Staphylococcus aureus FU-79-2,16 µg/mL
same,MIC,[18]; Staphylococcus aureus SSC-79-18,16 µg/mL
same,T/C × 100 (survival time treated/control),"[19]; 25 mg/kg intraperitoneally on days 1, 5 and 9",140%
same,T/C × 100 (survival time treated/control),"[19]; 50 mg/kg intraperitoneally on days 1, 5 and 9",150%
same,T/C × 100 (survival time treated/control),"[19]; 200 mg/kg intraperitoneally on days 1, 5 and 9",140%
same,T/C,[20]; concentration 2 mgc/ml,23.2%
same,Av. No. of Colonies/Culture,[20]; concentration 2 mgc/ml,137
same,T/C,[20]; concentration 20 mgc/ml,17.8%
same,Av. No. of Colonies/Culture,[20]; concentration 20 mgc/ml,105
same,T/C,[20]; concentration 200 mgc/ml,13.0%
same,Av. No. of Colonies/Culture,[20]; concentration 200 mgc/ml,78
same,activity in human tumor clonogenic (stem cell) assay,"[20]; human lung (LX-1) carcinoma, at 2.0 mcg/ml and higher doses",active
same,T/C,"[21]; Colon Carcinoma, concentration 2 mgc/ml, active if T/C ≤30%",16.0%
same,Av. No. of Colonies/Culture,"[21]; Colon Carcinoma, concentration 2 mgc/ml, colonies counted after 10-11 days, control 420",67
same,activity in human tumor clonogenic (stem cell) assay,"[21]; colon (CX-1) carcinoma, at 2.0 mcg/ml and higher doses",active
same,stability in acid,"[22]; acid, solutions kept between pH 7 and pH 9.5 during isolation",poor stability
same,stability,[22]; below pH 5.0,Decomposes rapidly
same,stability,[22]; weakly basic solutions,stable
